Results published in article PMC12772033, “A drought stress-responsive metabolite malate modulates stomatal responses through G-protein-dependent pathway in grapevine and Arabidopsis” (Molecular Horticulture, 2026).
Where a name gives a salt, the structure may show the parent alone.

Experiments:
VvSLAC1 [1] = target: T1, VvSLAC1 (Vitis vinifera, UniProt A0ABY9BHH9, F440A); assay: two-electrode voltage clamp, Xenopus oocytes; format: cell-based; conditions: activator of open-gate mutant
T1 construct: gene VitviT2T_002114; cDNA in pNB1u, cRNA expressed in Xenopus laevis oocytes; no tag mentioned; model trimmed 1-141 and 507-553

VvSLAC1 [2] = target: T1, VvSLAC1; assay: two-electrode voltage clamp, ramp mode, Xenopus oocytes; format: cell-based; conditions: activator of open-gate mutant, pH 5.6, 1 mM LaCl3, ramp +60 to -120 mV
[3] = pH 5.6, 1 mM LaCl3, -120 mV gap-free and I-V steps

T1 sequence (A0ABY9BHH9 entry or part of it F440A): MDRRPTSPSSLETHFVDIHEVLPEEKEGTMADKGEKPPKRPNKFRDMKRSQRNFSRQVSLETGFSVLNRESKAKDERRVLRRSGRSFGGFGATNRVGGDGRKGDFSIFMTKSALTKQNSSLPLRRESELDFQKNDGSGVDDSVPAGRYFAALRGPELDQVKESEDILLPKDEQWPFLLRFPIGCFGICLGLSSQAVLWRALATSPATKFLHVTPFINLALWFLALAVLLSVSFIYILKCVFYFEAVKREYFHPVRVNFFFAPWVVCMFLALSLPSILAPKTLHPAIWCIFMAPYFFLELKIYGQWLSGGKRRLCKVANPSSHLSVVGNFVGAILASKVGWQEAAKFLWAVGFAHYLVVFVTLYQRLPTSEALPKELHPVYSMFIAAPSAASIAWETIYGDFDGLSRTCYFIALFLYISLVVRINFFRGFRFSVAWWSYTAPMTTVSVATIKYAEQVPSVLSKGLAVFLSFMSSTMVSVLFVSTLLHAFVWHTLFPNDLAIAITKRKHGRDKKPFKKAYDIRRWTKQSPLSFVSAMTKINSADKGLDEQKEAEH

Structure (SMILES) | relative current at 10 mM (VvSLAC1 [1]; [3]) | other results
O=C(O)C[C@H](O)C(=O)O [Mal, malate] | Dicarboxylates, however, promoted the activity of VvSLAC1F440A. | –
O=C(O)/C=C/C(=O)O [Fum, fumarate] | Dicarboxylates, however, promoted the activity of VvSLAC1F440A. | –
O=C(O)CC(=O)C(=O)O [Oxal, oxalacetate] | – | relative current at 10 mM (VvSLAC1 [1]; pH 5.6, 1 mM LaCl3, -120 mV gap-free): Dicarboxylates, however, promoted the activity of VvSLAC1F440A.
O=C(O)CC(O)(CC(=O)O)C(=O)O [Cit, citrate] | – | current at 10 mM (VvSLAC1 [2]): The metabolites other than monocarboxylates activated VvSLAC1F440A.
